Entries after “also recorded” stand apart in the source; their conditions may differ.
Tests used:
MDA-MB-468 cells [1] = assay: MDA-MB-468 cell viability, CellTiter-Glo, 8 hrs, comparison with lapatinib; type: cell-based, human; settings: MDA-MB-468, within 8 hrs of incubation
Description: (§1) MDA-MB-468 cells (ATCC #HTB-32) were seeded with a density of 5,000 cells per well in a 96 well white plate (Costar Cat #3917) in DMEM media supplemented with 10% FBS (assay medium). The plates were incubated at 37° C., 5% CO2 for 24 hr. E05 and Lapatinib was diluted in the assay medium and added to the respective wells of the assay plates. The plates were further incubated at 37° C., 5% CO2 for 8 hrs. After the incubation, the cell viability was assessed using CellTiter-Glo® and the plates were read for luminescence using Cytation 5 (Biotek). The relative luminescence unit (RLU) obtained was plotted against the concentration and EC50 values were estimated using Graphpad Prism 5 software.

[2] = test system: colon cancer cell line HCT116; assay: Anti-proliferative activity in HCT116; type: cell-based
MDA-MB-468 = assay: Murine xenograft model of Triple-Negative Breast Cancer; type: in vivo, SCID mice; settings: oral, twice daily
Description: Efficacy study of E05 and positive control (5-Fluorouracil) were carried out in a murine xenograft model of Triple-Negative Breast Cancer (MDA-MB-468). Dosing was done as per the Table. 3.
Female SCID (Severe Combined Immunodeficient) mice were used for this study.
Approximately 5×10^6 cells in 0.2 mL FBS free medium containing 50% of Matrigel was injected into sub-cutaneous tissue on right flank of each mouse. Treatment with E05 or with positive control was initiated when average tumor volume reaches ˜100 mm3. Tumor volume was measured periodically.

[3] = Pharmacokinetic study after single oral administration; type: in vivo; settings: Sprague Dawley, rat, plasma, male rats
Description: A study to determine the pharmacokinetics of E05 after single oral (10 mg/kg) administration in male Sprague Dawley rats was carried out. […] The absolute oral bioavailability of Small molecule was 80% (FIG. 18).

[4] = Maximum tolerated dose study, oral gavage; type: in vivo; settings: single oral gavage
Description: A maximum tolerated dose (MTD) study was carried out with E05. In MTD study, group of 3 male and 3 female rats were dosed at 175 (group 1), 550 (group 2), 1750 (group 3) and 2000 (group 4) mg/kg b. wt.

MDA-MB-468 cells [5] = assay: MDA-MB-468 cell viability, CellTiter-Glo, 24 hrs; type: cell-based, human; settings: Homo sapiens, 24 hrs incubation
Description: MDA-MB-468 cells, isolated from a pleural effusion of a patient with metastatic adenocarcinoma of the breast, is a triple negative breast cancer (TNBC) cell line. The IC 50 value of E05 or lapatinib (Sigma) or the structural analogues of E05 were tested in this cell line.
as §1, with “Briefly, MDA-MB-468” for “MDA-MB-468”, “analogues were” for “Lapatinib was”, “plate.” for “plates.”, “24” for “8”, “software (FIG. 15 and Table 2).” for “software.”

[6] = test system: breast cancer cell line BT-474; assay: Anti-proliferative activity in BT-474; type: cell-based

## O=C(O)CCc1ccc(O)c(O)c1 [E05, 3-(3,4-Dihydroxyphenyl) propanoic acid]
MDA-MB-468 cells [1]
  inhibition compared with lapatinib: stronger inhibition in compare to lapatinib
[2]
  inhibition of growth: dose dependent response; also recorded: dose dependent inhibition of growth
MDA-MB-468; 6 weeks
  efficacy in the murine xenograft model of TNBC: statistically significant efficacy
MDA-MB-468; 6 weeks, 75, 200, 500 mg/kg
  tumor volumes: Dose dependent decrease in tumor volumes
[3]; oral 10 mg/kg, read-out: absolute oral bioavailability
  bioavailability: 80%
[3]; single oral gavage 10 mg/kg
  AUC(0-t): 151 ng·h/mL
  Cmax: 306 ng/mL
[3]; single oral gavage 10 mg/kg, read-out: mean time to reach peak plasma concentration (Tmax)
  Tmax: 15 min
[4]; Female G1 175 mg/kg b. wt.
  Morbidity on Experimental Day 1: 0
  Morbidity on Experimental Day 2: 0
  Morbidity on Experimental Day 3: 0
  Morbidity on Experimental Day 4: 0
  Mortality on Experimental Day 1: 0
  Mortality on Experimental Day 2: 0
  Mortality on Experimental Day 3: 0
  Mortality on Experimental Day 4: 0
[4]; Female G2 550 mg/kg b. wt.
  Morbidity on Experimental Day 1: 0
  Morbidity on Experimental Day 2: 0
  Morbidity on Experimental Day 3: 0
  Morbidity on Experimental Day 4: 0
  Mortality on Experimental Day 1: 0
  Mortality on Experimental Day 2: 0
  Mortality on Experimental Day 3: 0
  Mortality on Experimental Day 4: 0
[4]; Female G3 1750 mg/kg b. wt.
  Morbidity on Experimental Day 1: 0
  Morbidity on Experimental Day 2: 0
  Morbidity on Experimental Day 3: 0
  Morbidity on Experimental Day 4: 0
  Mortality on Experimental Day 1: 0
  Mortality on Experimental Day 2: 0
  Mortality on Experimental Day 3: 0
  Mortality on Experimental Day 4: 0
[4]; Female G4 2000 mg/kg b. wt.
  Morbidity on Experimental Day 1: 0
  Morbidity on Experimental Day 2: 0
  Morbidity on Experimental Day 3: 0
  Morbidity on Experimental Day 4: 0
  Mortality on Experimental Day 1: 0
  Mortality on Experimental Day 2: 0
  Mortality on Experimental Day 3: 0
  Mortality on Experimental Day 4: 0
[4]; Male G1 175 mg/kg b. wt.
  Morbidity on Experimental Day 1: 0
  Morbidity on Experimental Day 2: 0
  Morbidity on Experimental Day 3: 0
  Morbidity on Experimental Day 4: 0
  Mortality on Experimental Day 1: 0
  Mortality on Experimental Day 2: 0
  Mortality on Experimental Day 3: 0
  Mortality on Experimental Day 4: 0
[4]; Male G2 550 mg/kg b. wt.
  Morbidity on Experimental Day 1: 0
  Morbidity on Experimental Day 2: 0
  Morbidity on Experimental Day 3: 0
  Morbidity on Experimental Day 4: 0
  Mortality on Experimental Day 1: 0
  Mortality on Experimental Day 2: 0
  Mortality on Experimental Day 3: 0
  Mortality on Experimental Day 4: 0
[4]; Male G3 1750 mg/kg b. wt.
  Morbidity on Experimental Day 1: 0
  Morbidity on Experimental Day 2: 0
  Morbidity on Experimental Day 3: 0
  Morbidity on Experimental Day 4: 0
  Mortality on Experimental Day 1: 0
  Mortality on Experimental Day 2: 0
  Mortality on Experimental Day 3: 0
  Mortality on Experimental Day 4: 0
[4]; Male G4 2000 mg/kg b. wt.
  Morbidity on Experimental Day 1: 0
  Morbidity on Experimental Day 2: 0
  Morbidity on Experimental Day 3: 0
  Morbidity on Experimental Day 4: 0
  Mortality on Experimental Day 1: 0
  Mortality on Experimental Day 2: 0
  Mortality on Experimental Day 3: 0
  Mortality on Experimental Day 4: 0
MDA-MB-468 cells [5]
  EC50: 86.1 µM
[6]
  inhibition of growth: dose dependent response; also recorded: dose dependent inhibition of growth
